Experimental data from patent US5288720A, “Angiotensin II receptor blocking 2,3,6 substituted quinazolinones” (American Cyanamid Company, priority 1993, dated 1994).

How the values were obtained:
[1] = biological target: T1, Angiotensin II Receptor (Bos taurus, UniProt P25104); assay: Receptor Binding Assay: Binding of [^125 I](Sar^1,Ile^8)AngII to beef adrenal cortex membranes; conditions: 60 min, room temperature
T1 construct: The brownish tissue forming the adrenal cortex is scraped off and finely minced with scissors before homogenization; from tissue; host or cells: beef adrenal cortex, microsomal membranes (100,000×g pellet); fresh glands from a local slaughter house (Maxwell-Cohen)
T1 sequence (P25104 1-359): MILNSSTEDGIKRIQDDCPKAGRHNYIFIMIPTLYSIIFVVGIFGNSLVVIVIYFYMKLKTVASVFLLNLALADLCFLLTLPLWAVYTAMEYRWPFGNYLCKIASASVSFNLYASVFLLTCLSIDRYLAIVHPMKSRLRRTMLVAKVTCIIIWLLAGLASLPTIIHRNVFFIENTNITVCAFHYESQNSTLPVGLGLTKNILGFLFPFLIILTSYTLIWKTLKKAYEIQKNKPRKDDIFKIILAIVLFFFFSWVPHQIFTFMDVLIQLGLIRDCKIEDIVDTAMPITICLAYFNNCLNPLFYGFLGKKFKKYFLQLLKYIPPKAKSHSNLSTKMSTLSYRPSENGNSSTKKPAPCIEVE
Description: Beef adrenals are obtained from a local slaughter house (Maxwell-Cohen). [^125 […]. 2200 Ci/mmole, is purchased from Dupont (NEN®, Boston, Mass.). All unlabeled AngII analogs, Dimethylsulfoxide (DMSO), nucleotides, bovine serum albumin (BSA) are purchased from Sigma Chemical Co., St. Louis, Mo. U.S.A. […] Approximately sixteen (16) to twenty (20) beef adrenal glands are processed as follows: fresh adrenal glands received on crushed ice are cleaned of fatty tissues and the tough membranes encapsulating the glands are removed and discarded. The brownish tissue forming the adrenal cortex is scraped off and finely minced with scissors before homogenization. Care is taken to avoid contamination with medullary tissue during dissection. The scraped cortices are suspended in twenty volumes of an ice-cold buffer medium consisting of 10 mM Tris.HCl (pH 7.4 at 22° C.) and containing 1.0 mM EDTA and 0.2M sucrose. Unless otherwise indicated, all subsequent operations are done at 4° C. […] The homogenate is centrifuged first at low speed (3,000×g) for 10 minutes. […] This P2 pellet is discarded and the liquid phase is carefully decanted off in clean centrifuge tubes and recentrifuged at high speed (100,000×g) for 60 minutes. The translucent final pellet is harvested and combined in a small volume (20-50.0 ml) of 50.0 mM Tris.HCl buffer, pH 7.2. A 100 ul aliquot is withdrawn and the protein content of the preparation is determined by the Lowry's method (Lowry, O. H., Rosebrough, […]. and Randall, R. J., Protein measurement with Folin phenol reagent. J. Biol. Chem., […], 265-275, 1951). The pelleted membrane is reconstituted in 50.0 mM Tris.HCl buffer containing 0.1 mM of phenylmethylsulfonyl fluoride (PMSF) to give approximately a protein concentration of 2.5 mg per ml of tissue suspension. […] Receptor Binding Assay: […] In competition studies, experimental compounds are diluted in dimethylsulfoxide (DMSO) and added in 20 ul to wells before the introduction of tissue membranes. […] Assays are performed in triplicate. The wells are left undisturbed for 60 minutes at room temperature. Following incubation, all wells are harvested at once with a Brandel® Harvester especially designed for a 96 well plate (Brandel® Biomedical Research & Development Labs. Inc., Gaithersburg, Md., U.S.A.). The filter discs are washed with 10×1.0 ml of cold 0.9% NaCl to remove unbound ligand. Presoaking the filter sheet in 0.1% polyethyleneimine in normal saline (PEI/Saline) greatly reduces the radioactivity retained by the filter blanks. This method is routinely used. The filters are removed from the filter grid and counted in a Parkard® Cobra Gamma Counter for 1 minutes. (Packard Instrument Co., Downers Grove, Ill, U.S.A.). The binding data are analyzed by the non-linear interactive "LUNDON-1" program (LUNDON SOFTWARE Inc., Cleveland, Ohio U.S.A.).

[2] = system: ANGIOTENSIN II VASOPRESSOR RESPONSE; assay: AII Challenge: blockade of angiotensin II vasopressor response in conscious SHR; type: in vivo, rat (Conscious Male Okamoto-Aoki SHR); conditions: SHR n=2, 3 mg/kg i.v.
Description: By administering a compound of this invention to a rat, and then challenging with angiotensin II, a blockage of the vasopressor response is realized.
Conscious Male Okamoto-Aoki SHR, 16-20 weeks old, weighing approximately 330 g are purchased from Charles River Labs (Wilmington, Mass.). Conscious rats are restrained in a supine position with elastic tape. The area at the base of the tail is locally anesthetized by subcutaneous infiltration with 2% procaine. The ventral caudal artery and vein are isolated, and a cannula made of polyethylene (PE) 10-20 tubing (fused together by heat) is passed into the lower abdominal aorta and vena cava, respectively. The cannula is secured, heparinized (1,000 I.U./ml), sealed and the wound is closed. The animals are placed in plastic restraining cages in an upright position. The cannula is attached to a Statham P23Db pressure transducer, and pulsatile blood pressure is recorded to 10-15 minutes with a Gould Brush recorder. (Chan et al., (Drug Development Res., 18:75-94, 1989).
Angiotensin II (human sequence, Sigma Chem. Co., St. Louis, MO) of 0.05 and 0.1 ug/kg i.v. is injected into all rats (predosing response). Then a test compound, vehicle or a known angiotensin II antagonist is administered i.v., i.p. or orally to each set of rats. The two doses of angiotensin II are given to each rat again at 30, 60, 90, 120, 180, 240 and 300 minutes post dosing the compound or vehicle. The vasopressor response of angiotensin II is measured for the increase in systolic blood pressure in mmHg. The percentage of antagonism or blockade of the vasopressor response of angiotensin II by a compound is calculated using the vasopressor response (increase in systolic blood pressure) of angiotensin II of each rat predosing the compound as 100%. A compound is considered active if at 30 mg/kg i.v. it antagonized at least 50% of the response.

[3] = AII 0.05 mcg/kg IV, 30 min post dose
[4] = AII 0.05 mcg/kg IV, 60 min post dose
[5] = AII 0.05 mcg/kg IV, 90 min post dose
[6] = AII 0.05 mcg/kg IV, 120 min post dose
[7] = AII 0.05 mcg/kg IV, 180 min post dose
[8] = AII 0.05 mcg/kg IV, 240 min post dose
[9] = AII 0.05 mcg/kg IV, 300 min post dose
[10] = AII 0.1 mcg/kg IV, 30 min post dose
[11] = AII 0.1 mcg/kg IV, 60 min post dose
[12] = AII 0.1 mcg/kg IV, 90 min post dose
[13] = AII 0.1 mcg/kg IV, 120 min post dose
[14] = AII 0.1 mcg/kg IV, 180 min post dose
[15] = AII 0.1 mcg/kg IV, 240 min post dose
[16] = AII 0.1 mcg/kg IV, 300 min post dose

| Compound | IC50 [1] | % Inhibition of AII vasopressor response [2, 3] | Average Change (systolic blood pressure response to AII) [2, 3] | % Inhibition of AII vasopressor response [2, 4] | Average Change (systolic blood pressure response to AII) [2, 4] | % Inhibition of AII vasopressor response [2, 5] | Average Change (systolic blood pressure response to AII) [2, 5] | % Inhibition of AII vasopressor response [2, 6] | Average Change (systolic blood pressure response to AII) [2, 6] | % Inhibition of AII vasopressor response [2, 7] | Average Change (systolic blood pressure response to AII) [2, 7] | % Inhibition of AII vasopressor response [2, 8] | Average Change (systolic blood pressure response to AII) [2, 8] | % Inhibition of AII vasopressor response [2, 9] | Average Change (systolic blood pressure response to AII) [2, 9] | % Inhibition of AII vasopressor response [2, 10] | Average Change (systolic blood pressure response to AII) [2, 10] | % Inhibition of AII vasopressor response [2, 11] | Average Change (systolic blood pressure response to AII) [2, 11] | % Inhibition of AII vasopressor response [2, 12] | also measured |
| --- | --- | --- | --- | --- | --- | --- | --- | --- | --- | --- | --- | --- | --- | --- | --- | --- | --- | --- | --- | --- | --- |
| CCCCc1nc2ccc(C(C)(O)C3CCN(C)C3=O)cc2c(=O)n1Cc1ccc(-c2ccccc2-c2nn[nH]n2)cc1 (single isomer, unassigned; isomer 2) [Example 48, 2-Butyl-6-1-hydroxy-1(1-methyl-2-oxo-3-pyrrolidinyl)ethyl]-3-[[2'-(1H-tetrazol-5-yl)[1,1'-biphenyl]-4-yl]methyl-4(3H)-quinazolinone isomer 2] | 43 nM | 92% | 3.5 mmHg | 89% | 5 mmHg | 83% | 7.5 mmHg | 97% | 1.5 mmHg | 69% | 13.5 mmHg | 68% | 14 mmHg | 71% | 12.5 mmHg | 95% | 25 mmHg | 100% | 0 mmHg | 95% | Average Change (systolic blood pressure response to AII) [2, 12]: 2.5 mmHg; % Inhibition of AII vasopressor response [2, 13]: 84%; Average Change (systolic blood pressure response to AII) [2, 13]: 8.5 mmHg; % Inhibition of AII vasopressor response [2, 14]: 57%; Average Change (systolic blood pressure response to AII) [2, 14]: 22.5 mmHg; % Inhibition of AII vasopressor response [2, 15]: 52%; % Inhibition of AII vasopressor response [2, 16]: 57%; Average Change (systolic blood pressure response to AII) [2, 16]: 22.5 mmHg |
| CCCCc1nc2ccc(C(C)(O)C3CCCN(C)C3=O)cc2c(=O)n1Cc1ccc(-c2ccccc2-c2nn[nH]n2)cc1 (single isomer, unassigned; isomer 2) [Example 53, 2-Butyl-6-[1-hydroxy(1-methyl-2-oxo-3-piperidinyl)ethyl]-3-[[2'-(1H-tetrazol-5-yl)[1,1'-biphenyl]-4-yl]methyl]-4(3H)-quinazolinone isomer 2] | 54 nM | 89% | 5 mmHg | 89% | 5 mmHg | 58% | 20 mmHg | 58% | 20 mmHg | 37% | 30 mmHg | 58% | 20 mmHg | 53% | 22.5 mmHg | 76% | 12.5 mmHg | 61% | 20 mmHg | 76% | Average Change (systolic blood pressure response to AII) [2, 12]: 12.5 mmHg; % Inhibition of AII vasopressor response [2, 13]: 61%; Average Change (systolic blood pressure response to AII) [2, 13]: 20 mmHg; % Inhibition of AII vasopressor response [2, 14]: 42%; Average Change (systolic blood pressure response to AII) [2, 14]: 30 mmHg; % Inhibition of AII vasopressor response [2, 15]: 43%; Average Change (systolic blood pressure response to AII) [2, 15]: 29.5 mmHg; % Inhibition of AII vasopressor response [2, 16]: 17%; Average Change (systolic blood pressure response to AII) [2, 16]: 42.5 mmHg |
| CCCCc1nc2ccc(C(O)C3CCCS3(=O)=O)cc2c(=O)n1Cc1ccc(-c2ccccc2-c2nn[nH]n2)cc1 (single isomer, unassigned; isomer 2) [Example 16, 2-Butyl-6-[hydroxy(tetrahydro-2-thienyl)methyl-3-[2'-(1H-tetrazol-5-yl)[1,1'biphenyl]-4-yl]methyl]-4(3H)-quinazolinone S, S-dioxide, isomer 2] | 110 nM | 72% | 12.5 mmHg | 30% | 31.5 mmHg | 61% | 17.5 mmHg | 71% | 13 mmHg | 39% | 27.5 mmHg | 39% | 27.5 mmHg | 33% | 30 mmHg | 43% | 20 mmHg | 64% | 12.5 mmHg | 36% | Average Change (systolic blood pressure response to AII) [2, 12]: 22.5 mmHg; % Inhibition of AII vasopressor response [2, 13]: 50%; Average Change (systolic blood pressure response to AII) [2, 13]: 17.5 mmHg; % Inhibition of AII vasopressor response [2, 14]: 14%; Average Change (systolic blood pressure response to AII) [2, 14]: 30 mmHg; % Inhibition of AII vasopressor response [2, 15]: 0%; Average Change (systolic blood pressure response to AII) [2, 15]: 35 mmHg; % Inhibition of AII vasopressor response [2, 16]: -21%; Average Change (systolic blood pressure response to AII) [2, 16]: 42.5 mmHg |
